# Assay results from ChEMBL document CHEMBL3046559, “Sterile oat (Avena sterilis L.) cross-resistance profile to ACCase-inhibiting herbicides in Greece” (2012).
# Assays:
# Format in all cases: functional
# Avena sterilis [1] = assay: Herbicidal activity against Avena sterilis accession P02 assessed as weed survival at 32 times field recommended herbicide dose
# Avena sterilis [2] = assay: Herbicidal activity against Avena sterilis accession P22 assessed as weed survival at 1 times field recommended herbicide dose
# Avena sterilis [3] = assay: Herbicidal activity against Avena sterilis accession P09 assessed as induction of weed mortality
# Avena sterilis [4] = assay: Herbicidal activity against Avena sterilis accession P07 assessed as weed survival at 16 times field recommended herbicide dose
# Avena sterilis [5] = assay: Herbicidal activity against Avena sterilis accession P11 assessed as weed survival at 8 times field recommended herbicide dose
# Avena sterilis [6] = assay: Herbicidal activity against Avena sterilis accession P14 assessed as weed survival at 32 times field recommended herbicide dose
# Avena sterilis [7] = assay: Herbicidal activity against Avena sterilis accession P22 assessed as weed survival at 8 times field recommended herbicide dose
# Avena sterilis [8] = assay: Herbicidal activity against Avena sterilis accession P06S assessed as weed survival at 1/32 times field recommended herbicide dose
# Avena sterilis [9] = assay: Herbicidal activity against Avena sterilis accession P17 assessed as weed survival at 32 times field recommended herbicide dose
# Avena sterilis [10] = assay: Herbicidal activity against Avena sterilis accession P18 assessed as weed survival at 32 times field recommended herbicide dose
# Avena sterilis [11] = assay: Herbicidal activity against Avena sterilis accession P03 assessed as weed survival at 16 times field recommended herbicide dose
# Avena sterilis [12] = assay: Herbicidal activity against Avena sterilis accession P15 assessed as weed survival at 32 times field recommended herbicide dose
# Avena sterilis [13] = assay: Herbicidal activity against Avena sterilis accession P05 assessed as weed survival at 16 times field recommended herbicide dose
# Avena sterilis [14] = assay: Herbicidal activity against Avena sterilis accession P10S assessed as weed survival at 1/4 times field recommended herbicide dose
# Avena sterilis [15] = assay: Herbicidal activity against Avena sterilis accession P17 assessed as weed survival at 1 times field recommended herbicide dose
# Avena sterilis [16] = assay: Herbicidal activity against Avena sterilis accession P01 assessed as weed survival at 32 times field recommended herbicide dose
# Avena sterilis [17] = assay: Herbicidal activity against Avena sterilis accession P11 assessed as weed survival at 32 times field recommended herbicide dose
# Avena sterilis [18] = assay: Herbicidal activity against Avena sterilis accession P07 assessed as weed survival at 4 times field recommended herbicide dose
# Avena sterilis [19] = assay: Herbicidal activity against Avena sterilis accession P04 assessed as weed survival at 16 times field recommended herbicide dose
# Avena sterilis [20] = assay: Herbicidal activity against Avena sterilis accession P11 assessed as weed survival at 4 times field recommended herbicide dose
# Avena sterilis [21] = assay: Herbicidal activity against Avena sterilis accession P10S assessed as weed survival at 1 times field recommended herbicide dose
# Avena sterilis [22] = assay: Herbicidal activity against Avena sterilis accession P03 assessed as weed survival at 4 times field recommended herbicide dose
# Avena sterilis [23] = assay: Herbicidal activity against Avena sterilis accession P08 assessed as weed survival at 8 times field recommended herbicide dose
# Avena sterilis [24] = assay: Herbicidal activity against Avena sterilis accession P17 assessed as weed survival at 4 times field recommended herbicide dose
# Avena sterilis [25] = assay: Herbicidal activity against Avena sterilis accession P06S assessed as induction of weed mortality
# Avena sterilis [26] = assay: Herbicidal activity against Avena sterilis accession P12 assessed as induction of weed mortality
# Avena sterilis [27] = assay: Herbicidal activity against Avena sterilis accession P03 assessed as weed survival at 32 times field recommended herbicide dose
# Avena sterilis [28] = assay: Herbicidal activity against Avena sterilis accession P15 assessed as weed survival at 16 times field recommended herbicide dose
# Avena sterilis [29] = assay: Herbicidal activity against Avena sterilis accession P15 assessed as induction of weed mortality
# Avena sterilis [30] = assay: Herbicidal activity against Avena sterilis accession P18 assessed as induction of weed mortality
# Avena sterilis [31] = assay: Herbicidal activity against Avena sterilis accession P20 assessed as weed survival at 8 times field recommended herbicide dose
# Avena sterilis [32] = assay: Herbicidal activity against Avena sterilis accession P13S assessed as induction of weed mortality
# Avena sterilis [33] = assay: Herbicidal activity against Avena sterilis accession P16 assessed as weed survival at 8 times field recommended herbicide dose
# Avena sterilis [34] = assay: Herbicidal activity against Avena sterilis accession P19S assessed as weed survival at 1/32 times field recommended herbicide dose
# Avena sterilis [35] = assay: Herbicidal activity against Avena sterilis accession P01 assessed as weed survival at 1 times field recommended herbicide dose
# Avena sterilis [36] = assay: Herbicidal activity against Avena sterilis accession P12 assessed as weed survival at 32 times field recommended herbicide dose
# Avena sterilis [37] = assay: Herbicidal activity against Avena sterilis accession P19S assessed as weed survival at 1/8 times field recommended herbicide dose
# Avena sterilis [38] = assay: Herbicidal activity against Avena sterilis accession P01 assessed as induction of weed mortality
# Avena sterilis [39] = assay: Herbicidal activity against Avena sterilis accession P13S assessed as weed survival at 1/16 times field recommended herbicide dose
# Avena sterilis [40] = assay: Herbicidal activity against Avena sterilis accession P05 assessed as weed survival at 8 times field recommended herbicide dose
# Avena sterilis [41] = assay: Herbicidal activity against Avena sterilis accession P05 assessed as weed survival at 1 times field recommended herbicide dose
# Avena sterilis [42] = assay: Herbicidal activity against Avena sterilis accession P20 assessed as weed survival at 32 times field recommended herbicide dose
# Avena sterilis [43] = assay: Herbicidal activity against Avena sterilis accession P22 assessed as weed survival at 16 times field recommended herbicide dose
# Avena sterilis [44] = assay: Herbicidal activity against Avena sterilis accession P22 assessed as induction of weed mortality
# Avena sterilis [45] = assay: Herbicidal activity against Avena sterilis accession P12 assessed as weed survival at 4 times field recommended herbicide dose
# Avena sterilis [46] = assay: Herbicidal activity against Avena sterilis accession P18 assessed as weed survival at 1 times field recommended herbicide dose
# Avena sterilis [47] = assay: Herbicidal activity against Avena sterilis accession P01 assessed as weed survival at 4 times field recommended herbicide dose
# Avena sterilis [48] = assay: Herbicidal activity against Avena sterilis accession P18 assessed as weed survival at 4 times field recommended herbicide dose
# Avena sterilis [49] = assay: Herbicidal activity against Avena sterilis accession P18 assessed as weed survival at 8 times field recommended herbicide dose
# Avena sterilis [50] = assay: Herbicidal activity against Avena sterilis accession P10S assessed as weed survival at 1/32 times field recommended herbicide dose
# Avena sterilis [51] = assay: Herbicidal activity against Avena sterilis accession P16 assessed as induction of weed mortality
# Avena sterilis [52] = assay: Herbicidal activity against Avena sterilis accession P07 assessed as weed survival at 1 times field recommended herbicide dose
# Avena sterilis [53] = assay: Herbicidal activity against Avena sterilis accession P12 assessed as weed survival at 16 times field recommended herbicide dose
# Avena sterilis [54] = assay: Herbicidal activity against Avena sterilis accession P15 assessed as weed survival at 8 times field recommended herbicide dose
# Avena sterilis [55] = assay: Herbicidal activity against Avena sterilis accession P13S assessed as weed survival at 1/32 times field recommended herbicide dose
# Avena sterilis [56] = assay: Herbicidal activity against Avena sterilis accession P20 assessed as weed survival at 4 times field recommended herbicide dose
# Avena sterilis [57] = assay: Herbicidal activity against Avena sterilis accession P12 assessed as weed survival at 1 times field recommended herbicide dose
# Avena sterilis [58] = assay: Herbicidal activity against Avena sterilis accession P12 assessed as weed survival at 8 times field recommended herbicide dose
smiles,measurement,setting,value
COC(=O)C(C)Oc1ccc(Oc2ccc(Cl)cc2Cl)cc1 (stereo unspecified) [DICLOFOP-METHYL],Survival,Avena sterilis [1],53%
same,Survival,Avena sterilis [2],97%
same,GR50,Avena sterilis [3],14176 gAi/ha
same,Survival,Avena sterilis [4],20%
same,Survival,Avena sterilis [5],73%
same,Survival,Avena sterilis [6],37%
same,Survival,Avena sterilis [7],40%
same,Survival,Avena sterilis [8],100%
same,Survival,Avena sterilis [9],20%
same,Survival,Avena sterilis [10],40%
same,Survival,Avena sterilis [11],53%
same,Survival,Avena sterilis [12],80%
same,Survival,Avena sterilis [13],20%
same,Survival,Avena sterilis [14],90%
same,Survival,Avena sterilis [15],93%
same,Survival,Avena sterilis [16],50%
same,Survival,Avena sterilis [17],63%
same,Survival,Avena sterilis [18],60%
same,Survival,Avena sterilis [19],53%
same,Survival,Avena sterilis [20],90%
same,Survival,Avena sterilis [21],33%
same,Survival,Avena sterilis [22],93%
same,Survival,Avena sterilis [23],60%
same,Survival,Avena sterilis [24],80%
same,GR50,Avena sterilis [25],548 gAi/ha
same,GR50,Avena sterilis [26],>22740 gAi/ha
same,Survival,Avena sterilis [27],40%
same,Survival,Avena sterilis [28],83%
same,GR50,Avena sterilis [29],>22740 gAi/ha
same,GR50,Avena sterilis [30],10199 gAi/ha
same,Survival,Avena sterilis [31],80%
same,GR50,Avena sterilis [32],509 gAi/ha
same,Survival,Avena sterilis [33],53%
same,Survival,Avena sterilis [34],100%
same,Survival,Avena sterilis [35],90%
same,Survival,Avena sterilis [36],63%
same,Survival,Avena sterilis [37],100%
same,GR50,Avena sterilis [38],21999 gAi/ha
same,Survival,Avena sterilis [39],90%
same,Survival,Avena sterilis [40],40%
same,Survival,Avena sterilis [41],100%
same,Survival,Avena sterilis [42],70%
same,Survival,Avena sterilis [43],27%
same,GR50,Avena sterilis [44],3989 gAi/ha
same,Survival,Avena sterilis [45],80%
same,Survival,Avena sterilis [46],100%
same,Survival,Avena sterilis [47],87%
same,Survival,Avena sterilis [48],80%
same,Survival,Avena sterilis [49],60%
same,Survival,Avena sterilis [50],100%
same,GR50,Avena sterilis [51],5442 gAi/ha
same,Survival,Avena sterilis [52],100%
same,Survival,Avena sterilis [53],63%
same,Survival,Avena sterilis [54],80%
same,Survival,Avena sterilis [55],100%
same,Survival,Avena sterilis [56],100%
same,Survival,Avena sterilis [57],80%
same,Survival,Avena sterilis [58],80%
CCOC(=O)[C@@H](C)Oc1ccc(Oc2nc3ccc(Cl)cc3o2)cc1 [FENOXAPROP-P-ETHYL],Survival,Avena sterilis [1],40%
same,Survival,Avena sterilis [2],87%
same,GR50,Avena sterilis [3],2121 gAi/ha
same,Survival,Avena sterilis [4],80%
same,Survival,Avena sterilis [5],77%
same,Survival,Avena sterilis [6],0%
same,Survival,Avena sterilis [7],7%
same,Survival,Avena sterilis [8],97%
same,Survival,Avena sterilis [9],0%
same,Survival,Avena sterilis [10],60%
same,Survival,Avena sterilis [11],40%
same,Survival,Avena sterilis [12],23%
same,Survival,Avena sterilis [13],20%
same,Survival,Avena sterilis [14],30%
same,Survival,Avena sterilis [15],97%
same,Survival,Avena sterilis [16],20%
same,Survival,Avena sterilis [17],50%
same,Survival,Avena sterilis [18],77%
same,Survival,Avena sterilis [19],37%
same,Survival,Avena sterilis [20],83%
same,Survival,Avena sterilis [21],0%
same,Survival,Avena sterilis [22],50%
same,Survival,Avena sterilis [23],63%
same,Survival,Avena sterilis [24],40%
same,GR50,Avena sterilis [25],18 gAi/ha
same,GR50,Avena sterilis [26],1290 gAi/ha
same,Survival,Avena sterilis [27],37%
same,Survival,Avena sterilis [28],60%
same,GR50,Avena sterilis [29],1440 gAi/ha
same,GR50,Avena sterilis [30],>2640 gAi/ha
same,Survival,Avena sterilis [31],90%
same,GR50,Avena sterilis [32],18 gAi/ha
same,Survival,Avena sterilis [33],20%
same,Survival,Avena sterilis [34],93%
same,Survival,Avena sterilis [35],97%
same,Survival,Avena sterilis [36],40%
same,Survival,Avena sterilis [37],87%
same,GR50,Avena sterilis [38],600 gAi/ha
same,Survival,Avena sterilis [39],80%
same,Survival,Avena sterilis [40],20%
same,Survival,Avena sterilis [41],77%
same,Survival,Avena sterilis [42],53%
same,Survival,Avena sterilis [43],0%
same,GR50,Avena sterilis [44],250 gAi/ha
same,Survival,Avena sterilis [45],80%
same,Survival,Avena sterilis [46],100%
same,Survival,Avena sterilis [47],73%
same,Survival,Avena sterilis [48],97%
same,Survival,Avena sterilis [49],90%
same,Survival,Avena sterilis [50],100%
same,GR50,Avena sterilis [51],505 gAi/ha
same,Survival,Avena sterilis [52],97%
same,Survival,Avena sterilis [53],50%
same,Survival,Avena sterilis [54],70%
same,Survival,Avena sterilis [55],90%
same,Survival,Avena sterilis [56],100%
same,Survival,Avena sterilis [57],100%
same,Survival,Avena sterilis [58],53%
